In patent US10155259B2 (Merck Sharp & Dohme B.V., priority 2011, dated 2018):

These compounds were tested against T1, human FSH receptor (Homo sapiens, UniProt P23945) (assay: Antagonistic activity of compounds at the human FSH receptor expressed in CHO cells (CRE-luciferase reporter)). Conditions: CHO cells stably transfected with human FSH receptor and CRE/luciferase reporter; together with 49 μM recFSH; 4 hours incubation; 1% DMSO; read-out: IC50 (concentration of test compound causing half-maximal inhibition of the maximally attainable inhibition of the luciferase stimulation).
T1 construct: expressed in transfected cells; host or cells: CHO cells, stably transfected; cotransfected with CRE-luciferase reporter
T1 sequence (P23945 18-695): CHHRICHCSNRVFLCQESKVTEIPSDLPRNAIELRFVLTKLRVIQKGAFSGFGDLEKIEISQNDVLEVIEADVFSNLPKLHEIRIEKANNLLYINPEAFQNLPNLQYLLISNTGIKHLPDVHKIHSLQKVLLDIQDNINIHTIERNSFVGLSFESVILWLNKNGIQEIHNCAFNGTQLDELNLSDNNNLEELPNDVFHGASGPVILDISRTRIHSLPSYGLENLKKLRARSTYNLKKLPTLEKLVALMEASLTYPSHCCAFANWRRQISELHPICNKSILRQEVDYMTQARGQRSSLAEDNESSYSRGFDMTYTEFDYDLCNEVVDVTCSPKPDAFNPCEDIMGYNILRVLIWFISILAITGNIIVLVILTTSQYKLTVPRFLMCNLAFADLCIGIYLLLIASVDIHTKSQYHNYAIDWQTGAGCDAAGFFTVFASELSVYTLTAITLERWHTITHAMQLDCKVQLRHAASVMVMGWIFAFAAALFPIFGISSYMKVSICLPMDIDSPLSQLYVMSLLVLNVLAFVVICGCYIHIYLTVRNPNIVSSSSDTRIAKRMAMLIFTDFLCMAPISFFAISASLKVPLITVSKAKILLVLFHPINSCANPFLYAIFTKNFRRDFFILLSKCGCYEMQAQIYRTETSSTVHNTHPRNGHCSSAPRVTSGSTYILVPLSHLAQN
Format: cell-based
Method: Antagonistic Activity of Compounds at the Human FSH Receptor Expressed in CHO Cells
Antagonistic activity of the compounds at the human FSH receptor was determined in Chinese Hamster Ovary (CHO) cells stably transfected with the human FSH receptor and cotransfected with a cAMP responsive element (CRE)/promotor directing the expression of a firefly luciferase reporter gene. Binding of the compounds to the Gs protein-coupled FSH receptor will result in an increase of cAMP, which in turn will induce an increased transactivation of the luciferase reporter. The cells (7,500 cells/well of a 384 well plate) were incubated in Dulbecco' minimal essential F12 modified medium (Invitrogen), supplemented with 1 μg/ml bovine insulin, 5 μg/ml human apo-transferrin, 100 U/ml penicillin G and 100 μg/ml streptomycin with the test compounds (concentration between 0.316 nM and 10.0 μM) in duplicate together with […] (which, at this concentration in the absence of test compound, induces 80% of the maximal luciferase stimulation) in a humidified atmosphere (95%) at 5-7% CO2 and 37° C. The final concentration of DMSO was 1%. After 4 hours of incubation, plates were allowed to adjust to room temperature for 1 hour. Then, SteadyLite (PerkinElmer) solution was added to the wells and cells were allowed to lyse for at least 1 hour at room temperature. Subsequently, luciferase activity was measured in a luminescence counter. The signal is expressed as counts per second (cps). The IC50 (concentration of test compound causing half-maximal (50%) inhibition of the maximally attainable inhibition of the luciferase stimulation by the compound) and efficacy of the compounds were determined using the software program MathIQ (version 2.3, ID Business Solutions Limited).

Compound | IC50
COc1cc2c(cc1C(=O)N(C)C)-c1cc(C(=O)N[C@@H](CO)Cc3c[nH]c4ccccc34)c(-c3cccc(F)c3)n1CC2 [Example 48, (R)-3-(3-fluorophenyl)-N2-(1-hydroxy-3-(1H-indol-3-yl)propan-2-yl)-8-methoxy-N9,N9-dimethyl-5,6-dihydropyrrolo[2,1-a]isoquinoline-2,9-dicarboxamide] | 100 to 1000 nM
COc1cc2c(cc1-c1cncnc1)-c1cc(C(=O)N[C@@H](CO)Cc3c[nH]c4ccccc34)c(-c3cccs3)n1CC2 [Example 49, (R)—N-(1-hydroxy-3-(1H-indol-3-yl)propan-2-yl)-8-methoxy-9-(pyrimidin-5-yl)-3-(thiophen-2-yl)-5,6-dihydropyrrolo[2,1-a]isoquinoline-2-carboxamide] | < 100 nM
COc1cc2c(cc1-c1cncnc1)-c1cc(C(=O)N[C@@H](CO)Cc3c[nH]c4ccccc34)c(-c3cccc(F)c3)n1CC2 [Example 50, (R)-3-(3-fluorophenyl)-N-(1-hydroxy-3-(1H-indol-3-yl)propan-2-yl)-8-methoxy-9-(pyrimidin-5-yl)-5,6-dihydropyrrolo[2,1-a]isoquinoline-2-carboxamide] | < 100 nM
COc1cc2c(cc1-c1cnc(N(C)C)nc1)-c1cc(C(=O)N[C@@H](CO)Cc3c[nH]c4ccccc34)c(-c3cccc(F)c3)n1CC2 [Example 51, (R)-9-(2-(dimethylamino)pyrimidin-5-yl)-3-(3-fluorophenyl)-N-(1-hydroxy-3-(1H-indol-3-yl)propan-2-yl)-8-methoxy-5,6-dihydropyrrolo[2,1-a]isoquinoline-2-carboxamide] | 100 to 1000 nM
COc1cc2c(cc1-c1cnn(C)c1)-c1cc(C(=O)N[C@@H](CO)Cc3c[nH]c4ccccc34)c(-c3cccc(F)c3)n1CC2 [Example 52, (R)-3-(3-fluorophenyl)-N-(1-hydroxy-3-(1H-indol-3-yl)propan-2-yl)-8-methoxy-9-(1-methyl-1H-pyrazol-4-yl)-5,6-dihydropyrrolo[2,1-a]isoquinoline-2-carboxamide] | < 100 nM
COc1cc2c(cc1-c1cccnc1OC)-c1cc(C(=O)N[C@@H](CO)Cc3c[nH]c4ccccc34)c(-c3cccc(F)c3)n1CC2 [Example 53, 3-(3-fluorophenyl)-N—((R)-1-hydroxy-3-(1H-indol-3-yl)propan-2-yl)-8-methoxy-9-(2-methoxypyridin-3-yl)-5,6-dihydropyrrolo[2,1-a]isoquinoline-2-carboxamide] | < 100 nM
COc1cc2c(cc1-c1cccnc1OC)-c1cc(C(=O)N[C@@H](CO)Cc3c[nH]c4ccccc34)c(-c3cccs3)n1CC2 [Example 54, N—((R)-1-hydroxy-3-(1H-indol-3-yl)propan-2-yl)-8-methoxy-9-(2-methoxypyridin-3-yl)-3-(thiophen-2-yl)-5,6-dihydropyrrolo[2,1-a]isoquinoline-2-carboxamide] | < 100 nM
COc1cc2c(cc1-c1cnn(C)c1)-c1cc(C(=O)N[C@@H](CO)Cc3c[nH]c4ccccc34)c(-c3cccs3)n1CC2 [Example 55, (R)—N-(1-hydroxy-3-(1H-indol-3-yl)propan-2-yl)-8-methoxy-9-(1-methyl-1H-pyrazol-4-yl)-3-(thiophen-2-yl)-5,6-dihydropyrrolo[2,1-a]isoquinoline-2-carboxamide] | < 100 nM
COc1cc2c(cc1-c1cnc(N(C)C)nc1)-c1cc(C(=O)N[C@@H](CO)Cc3c[nH]c4ccccc34)c(-c3cccs3)n1CC2 [Example 56, (R)-9-(2-(dimethylamino)pyrimidin-5-yl)-N-(1-hydroxy-3-(1H-indol-3-yl)propan-2-yl)-8-methoxy-3-(thiophen-2-yl)-5,6-dihydropyrrolo[2,1-a]isoquinoline-2-carboxamide] | < 100 nM
COc1cc(-c2cc3c(cc2OC)CCn2c-3cc(C(=O)N[C@@H](CO)Cc3c[nH]c4ccccc34)c2-c2cccs2)ccn1 [Example 57, (R)—N-(1-hydroxy-3-(1H-indol-3-yl)propan-2-yl)-8-methoxy-9-(2-methoxypyridin-4-yl)-3-(thiophen-2-yl)-5,6-dihydropyrrolo[2,1-a]isoquinoline-2-carboxamide] | < 100 nM
COc1ccc(-c2cc3c(cc2OC)CCn2c-3cc(C(=O)N[C@@H](CO)Cc3c[nH]c4ccccc34)c2-c2cccs2)cn1 [Example 58, (R)—N-(1-hydroxy-3-(1H-indol-3-yl)propan-2-yl)-8-methoxy-9-(6-methoxypyridin-3-yl)-3-(thiophen-2-yl)-5,6-dihydropyrrolo[2,1-a]isoquinoline-2-carboxamide] | < 100 nM
COc1cc2c(cc1-c1cn[nH]c1)-c1cc(C(=O)N[C@@H](CO)Cc3c[nH]c4ccccc34)c(-c3cccs3)n1CC2 [Example 59, (R)—N-(1-hydroxy-3-(1H-indol-3-yl)propan-2-yl)-8-methoxy-9-(1H-pyrazol-4-yl)-3-(thiophen-2-yl)-5,6-dihydropyrrolo[2,1-a]isoquinoline-2-carboxamide] | < 100 nM
COc1cc2c(c(OC)c1OC)CCn1c-2cc(C(=O)N[C@@H](CO)Cc2c[nH]c3ccccc23)c1-c1ccccc1 [Example 60, (R)—N-(1-hydroxy-3-(1H-indol-3-yl)propan-2-yl)-7,8,9-trimethoxy-3-phenyl-5,6-dihydropyrrolo[2,1-a]isoquinoline-2-carboxamide] | < 100 nM
COc1cc2c(c(OC)c1OC)CCn1c-2cc(C(=O)N[C@@H](CO)Cc2c[nH]c3ccccc23)c1-c1cccs1 [Example 61, (R)—N-(1-hydroxy-3-(1H-indol-3-yl)propan-2-yl)-7,8,9-trimethoxy-3-(thiophen-2-yl)-5,6-dihydropyrrolo[2,1-a]isoquinoline-2-carboxamide] | < 100 nM
COc1cc2c(c(OC)c1OC)CCn1c-2cc(C(=O)N[C@@H](CO)Cc2c[nH]c3ccccc23)c1-c1cccc(F)c1 [Example 62, (R)-3-(3-fluorophenyl)-N-(1-hydroxy-3-(1H-indol-3-yl)propan-2-yl)-7,8,9-trimethoxy-5,6-dihydropyrrolo[2,1-a]isoquinoline-2-carboxamide] | < 100 nM
COc1cc2c(c(OC)c1OC)-c1cc(C(=O)N[C@@H](CO)Cc3c[nH]c4ccccc34)c(-c3ccccc3)n1CC2 [Example 63, (R)—N-(1-hydroxy-3-(1H-indol-3-yl)propan-2-yl)-8,9,10-trimethoxy-3-phenyl-5,6-dihydropyrrolo[2,1-a]isoquinoline-2-carboxamide] | < 100 nM
COc1cc2c(c(OC)c1OC)-c1cc(C(=O)N[C@@H](CO)Cc3c[nH]c4ccccc34)c(-c3cccs3)n1CC2 [Example 64, (R)—N-(1-hydroxy-3-(1H-indol-3-yl)propan-2-yl)-8,9,10-trimethoxy-3-(thiophen-2-yl)-5,6-dihydropyrrolo[2,1-a]isoquinoline-2-carboxamide] | < 100 nM
COc1cc2c(c(OC)c1OC)-c1cc(C(=O)N[C@@H](CO)Cc3c[nH]c4ccccc34)c(-c3cccc(F)c3)n1CC2 [Example 65, (R)-3-(3-fluorophenyl)-N-(1-hydroxy-3-(1H-indol-3-yl)propan-2-yl)-8,9,10-trimethoxy-5,6-dihydropyrrolo[2,1-a]isoquinoline-2-carboxamide] | < 100 nM
COc1cc2c(cc1OC)-c1nc(C(=O)N[C@@H](CO)Cc3c[nH]c4ccccc34)c(-c3cccc(F)c3)n1CC2 [Example 66, (R)-3-(3-fluorophenyl)-N-(1-hydroxy-3-(1H-indol-3-yl)propan-2-yl)-8,9-dimethoxy-5,6-dihydroimidazo[2,1-a]isoquinoline-2-carboxamide] | 100 to 1000 nM
COc1cc2c(cc1OC)-c1nc(C(=O)N[C@@H](CO)Cc3c[nH]c4ccccc34)c(-c3ccccc3F)n1CC2 [Example 67, 3-(2-fluorophenyl)-N—((R)-1-hydroxy-3-(1H-indol-3-yl)propan-2-yl)-8,9-dimethoxy-5,6-dihydroimidazo[2,1-a]isoquinoline-2-carboxamide] | 100 to 1000 nM
